Assay results as given in ChEMBL document CHEMBL1201862, “PubChem BioAssay data set” (2004).
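Protocol summary: plate cells (96-well), add compound at 5 concentrations, incubate 48 h, interpolate endpoints linearly. GI50: concentration for 50% inhibition of growth.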 Active and inactive are the calls of the source. Cut-off read from the data, not from the text of the source: active = GI50 up to about 1.1 µM and inactive = higher.

Assays:
Test in all cases: NCI anticancer screen, dose series, 48 h
[1] = system: COLO 205
[2] = system: EKVX
[3] = system: Hs-578T
[4] = system: ACHN
[5] = system: SN12C
[6] = system: SW-620
[7] = system: NCI-H226
[8] = system: DU-145
[9] = system: HCT-116
[10] = system: IGROV-1
[11] = system: CAKI-1
[12] = system: SR
[13] = system: U-251
[14] = system: NCI/ADR-RES
[15] = system: M14
[16] = system: SK-OV-3
[17] = system: SNB-75
[18] = system: T47D
[19] = system: BT-549

Structure (SMILES)	GI50 [1]	GI50 [2]	GI50 [3]	GI50 [4]	GI50 [5]	GI50 [6]	GI50 [7]	GI50 [8]	GI50 [9]	GI50 [10]	GI50 [11]	GI50 [12]	GI50 [13]	GI50 [14]	GI50 [15]	GI50 [16]	GI50 [17]	GI50 [18]	GI50 [19]
COC(=O)NCCc1n[nH]c2c1C(=O)C=C(OC)C2=O	24.8 µM (inactive)	22.9 µM (inactive)	34.3 µM (inactive)	19.1 µM (inactive)	20.3 µM (inactive)	22.6 µM (inactive)	23 µM (inactive)	52.6 µM (inactive)	18.6 µM (inactive)	19.9 µM (inactive)	24.5 µM (inactive)	15 µM (inactive)	16.7 µM (inactive)	> 100 µM (inactive)	19.7 µM (inactive)	> 100 µM (inactive)	19.2 µM (inactive)		
CCNc1c(C(=O)N(CC)CC)c(=O)[nH]c2ncccc12	> 100 µM (inactive)	> 100 µM (inactive)		> 100 µM (inactive)	> 100 µM (inactive)	> 100 µM (inactive)	> 100 µM (inactive)		> 100 µM (inactive)	> 100 µM (inactive)	> 100 µM (inactive)		> 100 µM (inactive)		> 100 µM (inactive)	> 100 µM (inactive)	> 100 µM (inactive)		
O=C(/C=C1\NC(=O)c2ccccc2N1)c1ccncc1	> 100 µM (inactive)	> 100 µM (inactive)		> 100 µM (inactive)	> 100 µM (inactive)	> 100 µM (inactive)	> 100 µM (inactive)		> 100 µM (inactive)	> 100 µM (inactive)	> 100 µM (inactive)	> 100 µM (inactive)	> 100 µM (inactive)		> 100 µM (inactive)	> 100 µM (inactive)	45.9 µM (inactive)		
CCOC(=O)Nc1ccc(S(=O)(=O)OC)cc1.CCOC(=O)Nc1ccc(S(=O)(=O)OC)cc1.NNC(=O)c1ccncc1	> 50 µM (inactive)	> 50 µM (inactive)		> 50 µM (inactive)	> 50 µM (inactive)	12.1 µM (inactive)	> 50 µM (inactive)		14.3 µM (inactive)	> 50 µM (inactive)	> 50 µM (inactive)		11.1 µM (inactive)		> 50 µM (inactive)	> 50 µM (inactive)	> 50 µM (inactive)		
CC1=NN(c2ccccc2)C(=O)C1/N=N/c1ccc(Br)cc1C (centres undefined)	> 100 µM (inactive)	> 100 µM (inactive)		37.3 µM (inactive)	> 100 µM (inactive)	> 100 µM (inactive)	35.9 µM (inactive)		81.3 µM (inactive)	67.3 µM (inactive)	46.2 µM (inactive)		38.3 µM (inactive)		90.4 µM (inactive)	32.9 µM (inactive)	19.1 µM (inactive)		
Cc1c(C(=O)O)sc2nc[nH]c(=O)c12	> 100 µM (inactive)	53.8 µM (inactive)	22.6 µM (inactive)	> 100 µM (inactive)	> 100 µM (inactive)	> 100 µM (inactive)	25.1 µM (inactive)	> 100 µM (inactive)	> 100 µM (inactive)	84.1 µM (inactive)	50.2 µM (inactive)		> 100 µM (inactive)	> 100 µM (inactive)	> 100 µM (inactive)	> 100 µM (inactive)	49.8 µM (inactive)	> 100 µM (inactive)	
COc1ccc(-c2nc(SCC(=O)N/N=C/c3ccc(N(C)C)cc3)[nH]c2-c2ccc(OC)cc2)cc1	10.2 µM (inactive)	90.4 µM (inactive)		51.9 µM (inactive)	82 µM (inactive)	48 µM (inactive)		78.5 µM (inactive)	37.9 µM (inactive)	> 100 µM (inactive)	> 100 µM (inactive)		36.9 µM (inactive)	> 100 µM (inactive)	35.2 µM (inactive)	> 100 µM (inactive)	62.8 µM (inactive)	10.6 µM (inactive)	> 100 µM (inactive)
O=c1c2cc(Cl)ccc2sc2cccc(Cl)c12	> 100 µM (inactive)	> 100 µM (inactive)		> 100 µM (inactive)	> 100 µM (inactive)	> 100 µM (inactive)	> 100 µM (inactive)		> 100 µM (inactive)	> 100 µM (inactive)	> 100 µM (inactive)	> 100 µM (inactive)	> 100 µM (inactive)		> 100 µM (inactive)				
COc1ccc(/C=C(\C(C)=O)C(=O)Nc2ccccc2)cc1		> 100 µM (inactive)		> 100 µM (inactive)	> 100 µM (inactive)	> 100 µM (inactive)	> 100 µM (inactive)		> 100 µM (inactive)	> 100 µM (inactive)	> 100 µM (inactive)	> 100 µM (inactive)	> 100 µM (inactive)		> 100 µM (inactive)	> 100 µM (inactive)			
CC(C)(C)C(=O)C(Cc1ccccc1)C(=O)C(C)(C)C	> 100 µM (inactive)	> 100 µM (inactive)	> 100 µM (inactive)	> 100 µM (inactive)	> 100 µM (inactive)	> 100 µM (inactive)	> 100 µM (inactive)	> 100 µM (inactive)	52.6 µM (inactive)	> 100 µM (inactive)	> 100 µM (inactive)	51.3 µM (inactive)	> 100 µM (inactive)	51.6 µM (inactive)	> 100 µM (inactive)	23.2 µM (inactive)	> 100 µM (inactive)	25.5 µM (inactive)	
O=[N+]([O-])c1ccc(Cl)c(C2CC(c3cccc4ccccc34)=Nc3ccccc3S2)c1 (centres undefined)	61.2 µM (inactive)	70.8 µM (inactive)		34.1 µM (inactive)	21 µM (inactive)	18.8 µM (inactive)	27.6 µM (inactive)		6.68 µM (inactive)	48.5 µM (inactive)	21.9 µM (inactive)	3.58 µM (inactive)	20.5 µM (inactive)		20.6 µM (inactive)	> 84.7 µM (inactive)	0.195 µM (active)		
CC(C)(CCCCC(C)(C)[N+](C)(C)C)[N+](C)(C)C	> 100 µM (inactive)	> 100 µM (inactive)	> 100 µM (inactive)	> 10 µM (inactive)	> 100 µM (inactive)	> 100 µM (inactive)			> 100 µM (inactive)	> 100 µM (inactive)		> 100 µM (inactive)	> 100 µM (inactive)	> 100 µM (inactive)	> 100 µM (inactive)	> 100 µM (inactive)	> 100 µM (inactive)	> 100 µM (inactive)	
COc1ccc(NC(=O)C(=O)c2c(O)c3ccc(O)cc3oc2=O)c([N+](=O)[O-])c1	> 100 µM (inactive)	> 100 µM (inactive)		> 100 µM (inactive)		> 100 µM (inactive)	> 100 µM (inactive)		> 100 µM (inactive)	> 100 µM (inactive)	> 100 µM (inactive)				> 100 µM (inactive)	> 100 µM (inactive)	> 100 µM (inactive)		
CC(CO)C1=CC(C#CCOCc2ccccc2)N(C(=O)Oc2ccccc2)c2ccccc21 (centres undefined)	15.1 µM (inactive)	10.3 µM (inactive)	14.3 µM (inactive)	6.9 µM (inactive)	15.9 µM (inactive)	45.5 µM (inactive)	40.7 µM (inactive)	57.5 µM (inactive)	14.8 µM (inactive)	28.2 µM (inactive)	18.7 µM (inactive)	9.53 µM (inactive)	34.5 µM (inactive)	8.89 µM (inactive)	17.1 µM (inactive)	34.9 µM (inactive)	22.9 µM (inactive)	3.76 µM (inactive)	
O=C1CSC(c2cccc(Cl)c2)N1c1c(O)c(Cl)cc(Br)c1Cl (centres undefined)	23.5 µM (inactive)	> 100 µM (inactive)	29.8 µM (inactive)	14.8 µM (inactive)	58.5 µM (inactive)	17.2 µM (inactive)	30.2 µM (inactive)	> 100 µM (inactive)	15.1 µM (inactive)		> 100 µM (inactive)	24.8 µM (inactive)	25.5 µM (inactive)	71 µM (inactive)	> 100 µM (inactive)	> 100 µM (inactive)	29.4 µM (inactive)	17.1 µM (inactive)	
OC(CC(O)(C(F)(F)F)C(F)(F)F)c1ccc(C(O)CC(O)(C(F)(F)F)C(F)(F)F)cc1 (centres undefined)		14.7 µM (inactive)	22 µM (inactive)	14.4 µM (inactive)		19.2 µM (inactive)		15 µM (inactive)	11.8 µM (inactive)	10.9 µM (inactive)	12.7 µM (inactive)	17.1 µM (inactive)	16.4 µM (inactive)	14.6 µM (inactive)	15.9 µM (inactive)	17 µM (inactive)	17.5 µM (inactive)	13.3 µM (inactive)	
CCOC(=O)C(=CNC(=S)Nc1c(CC)cccc1CC)C(=O)OCC	> 100 µM (inactive)	> 100 µM (inactive)	80.7 µM (inactive)	> 100 µM (inactive)	> 100 µM (inactive)	> 100 µM (inactive)	> 100 µM (inactive)	> 100 µM (inactive)	> 100 µM (inactive)	> 100 µM (inactive)	> 100 µM (inactive)	> 100 µM (inactive)	> 100 µM (inactive)	> 100 µM (inactive)	> 100 µM (inactive)	> 100 µM (inactive)	12.8 µM (inactive)	> 100 µM (inactive)	
C(CCCCc1nnc(N2CCCCC2)o1)CCCc1nnc(N2CCCCC2)o1	> 100 µM (inactive)	> 100 µM (inactive)		> 100 µM (inactive)	> 100 µM (inactive)	> 100 µM (inactive)	> 100 µM (inactive)	> 100 µM (inactive)	> 100 µM (inactive)	> 100 µM (inactive)	> 100 µM (inactive)		> 100 µM (inactive)	> 100 µM (inactive)	> 100 µM (inactive)	> 100 µM (inactive)	> 100 µM (inactive)		> 100 µM (inactive)
